Test systems include M19-MEL melanoma; KM20L2 colon; XF 498 CNS; DMS 273 small cell lung; DLD-1 colon; P388/ADR leukemia; A498 renal; SW-620 colon; MALME-3M melanoma; OVCAR-8 ovarian; HOP-18 NSCLC; SN12K1 renal; SNB-78 CNS.
Common to all, as to assay: NCI tumour cell line growth inhibition, 48 h

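Test compounds were applied to cells in 96-well plates for 48 hours at 5 doses. TGI marks complete inhibition of growth.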 Where a SMILES comes first, the peptide text is derived from it. [ ]: non-standard residue; d: D form.

Consider `CC(C)C[C@H](NC(=O)[C@H](CC(C)C)NC(=O)[C@@H](Cc1c[nH]c2ccccc12)NC(=O)[C@H](Cc1ccccc1)NC(=O)[C@@H](Cc1c[nH]c2ccccc12)NC(=O)[C@H](CCC(N)=O)NC(=O)[C@H](CCC(N)=O)NC(=O)[C@H]1CCCN1C(=O)[C@@H](N)CCCCN)C(N)=O` (H-K[dP]QQ[dW]F[dW]LL-NH2), for which the TGI in the assay on M19-MEL melanoma, with KM20L2 colon, in the assay with XF 498 CNS, in the assay with DMS 273 small cell lung, in the assay on DLD-1 colon and in the assay with P388/ADR leukemia was above 100 µM each time. In addition, the TGI with A498 renal, in the assay with SW-620 colon, with MALME-3M melanoma, with OVCAR-8 ovarian, in the assay with HOP-18 NSCLC and in the assay with SN12K1 renal was above 100 µM in each case. The TGI with SNB-78 CNS is above 100 µM.

On to `CC1=CC2c3cccc4[nH]cc(c34)CC2N(C)C1` (configuration not stated), for which the TGI with M19-MEL melanoma is above 100 µM; in the assay on KM20L2 colon, above 100 µM; in the assay on XF 498 CNS, 99.1 µM; in the assay with DMS 273 small cell lung, above 100 µM; in the assay with DLD-1 colon, above 88.2 µM; in the assay with P388/ADR leukemia it was above 73.1 µM. Besides, the TGI in the assay with A498 renal is above 100 µM; in the assay with SW-620 colon it was above 100 µM; in the assay on MALME-3M melanoma, above 100 µM; in the assay on OVCAR-8 ovarian it was above 100 µM; with HOP-18 NSCLC, 82.4 µM; in the assay on SN12K1 renal, above 31.6 µM. For the same compound, in the assay on SNB-78 CNS, the TGI was above 100 µM.

In the case of `CC(C)NC(=O)OCc1c2c(n(C)c1COC(=O)NC(C)C)-c1ccccc1CC2`, the TGI in the assay with M19-MEL melanoma is 23 µM; in the assay with KM20L2 colon it was 28 µM; in the assay with XF 498 CNS, 28.2 µM; in the assay with DMS 273 small cell lung, 27.3 µM; in the assay on DLD-1 colon, 16.9 µM; with P388/ADR leukemia, 5.27 µM. Further, the TGI came to 61.7 µM with A498 renal; 26 µM with SW-620 colon; 19.2 µM in the assay on MALME-3M melanoma; 31.1 µM in the assay on OVCAR-8 ovarian; 13.9 µM in the assay with HOP-18 NSCLC; 24.4 µM in the assay on SN12K1 renal. In the assay on SNB-78 CNS, the TGI was found to be 72 µM.

For the compound `CC(=O)Nc1cccc(N=NN(C)C)c1`, the TGI in the assay with M19-MEL melanoma is above 100 µM; in the assay on KM20L2 colon it was above 100 µM; with XF 498 CNS it was above 100 µM; in the assay on DMS 273 small cell lung, above 100 µM; in the assay on DLD-1 colon, above 31.6 µM; in the assay on P388/ADR leukemia, above 100 µM. For the same compound, the TGI with A498 renal, with SW-620 colon, with MALME-3M melanoma, in the assay with OVCAR-8 ovarian, in the assay with HOP-18 NSCLC and with SN12K1 renal was above 100 µM each time. Moreover, the TGI in the assay with SNB-78 CNS is above 100 µM.

(Values after PubChem BioAssay (NCI).)
